Data: the NIST ThermoML archive (doi:10.1021/je050473r)
Numbers after ± are expanded uncertainties.

Conditions: Liquid
[1] = 303.15 K, Closed cell (Static) method
[2] = 353.15 K, Closed cell (Static) method
[3] = 373.1 K, Closed cell (Static) method
[4] = 413.15 K, Closed cell (Static) method

Row | SMILES | vapor or sublimation pressure [3] [kPa] | vapor or sublimation pressure [4] [kPa] | further results
1 | ClCCCl [1,2-dichloroethane] |  |  | vapor or sublimation pressure [1]: 13.28 ± 1 kPa; vapor or sublimation pressure [2]: 90.9 ± 1 kPa
2 | CC(C)CC(C)(C)C [2,2,4-trimethylpentane] | 103.49 ± 1.1 | 282.8 ± 1.4 | 
3 | CCc1cccs1 [2-ethylthiophene] | 33.26 ± 1 | 111.4 ± 1.1 | 
4 | Cc1cccs1 [2-methylthiophene] | 69.87 ± 1.1 | 209.8 ± 1.2 | 
5 | Cl/C=C/Cl [(E)-1,2-dichloroethene] |  |  | vapor or sublimation pressure [1]: 53.33 ± 1.1 kPa; vapor or sublimation pressure [2]: 269.9 ± 1.3 kPa
6 | N#CC1CC1 [cyclopropanecarbonitrile] |  |  | vapor or sublimation pressure (373.1 K): 35.2 ± 1 kPa; vapor or sublimation pressure (408.15 K): 102.2 ± 1.2 kPa
7 | C=CCCCCCC [oct-1-ene] | 53.82 ± 1.1 | 165.9 ± 1.2 | 
8 | O [water] |  |  | vapor or sublimation pressure (373.1 K): 101.4 ± 1.3 kPa; vapor or sublimation pressure (408.15 K): 312.4 ± 2.1 kPa
